From EPA's ToxRefDB 2

Tests used:
rat [1] = conditions: Combined chronic toxicity/carcinogenicity, fischer, Inhalation, Whole-Body, dose end: 24 month, group: systemic
rat [2] = conditions: Prenatal developmental toxicity study, sprague dawley, Oral, Gavage/Intubation, dose end: 15 GD
mouse [3] = conditions: Combined chronic toxicity/carcinogenicity, other, Inhalation, Whole-Body, dose end: 24 month, group: systemic
mouse [4] = conditions: Subchronic oral toxicity in rodents, b6c3f1, Gavage/Intubation, dose end: 13 week, group: systemic, systemic / pathology microscopic / liver / [other] + systemic / pathology microscopic / liver / cytomegaly + systemic / pathology …
rat [5] = conditions: Subchronic oral toxicity in rodents, fischer, Gavage/Intubation, dose end: 13 week, group: systemic, systemic / pathology microscopic / kidney / degeneration
mouse [6] = conditions: Carcinogenicity; b6c3f1; Oral; Gavage/Intubation; dose end: 103 week; group: systemic; systemic / pathology microscopic / kidney / [other] + systemic / pathology microscopic / kidney / degeneration + systemic / pathology …
mouse [7] = conditions: Subchronic inhalation toxicity, other, Whole-Body, dose end: 13 week, group: systemic
rat [8] = conditions: Subchronic inhalation toxicity, fischer, Whole-Body, dose end: 13 week, group: systemic
mouse [9] = conditions: Subchronic oral toxicity in rodents, B6C3F1, Gavage/Intubation, dose end: 13 week, group: systemic, systemic / pathology microscopic / liver / cytomegaly
rat [10] = conditions: Subchronic oral toxicity in rodents, fischer, Gavage/Intubation, dose end: 13 week, group: systemic, systemic / in life observation / body weight / body weight gain + systemic / pathology microscopic / kidney / [other] + systemic / pathology…
rat [11] = conditions: Carcinogenicity; fischer; Oral; Gavage/Intubation; dose end: 2 year; group: systemic; systemic / pathology microscopic / kidney / casts + systemic / pathology microscopic / kidney / degeneration + systemic / pathology …
[12] = systemic / organ weight / liver / absolute + systemic / organ weight / liver / relative to body weight + systemic / pathology microscopic / …
[13] = group: developmental, developmental / developmental malformation / bone / supernumerary + systemic / in life observation / body weight / fetal weight
[14] = group: maternal, systemic / in life observation / body weight / body weight gain + systemic / in life observation / food consumption / food consumption
[15] = systemic / pathology microscopic / liver / hepatoblastoma + systemic / pathology microscopic / liver / hepatocellular adenoma + systemic / …
[16] = systemic / in life observation / body weight / body weight + systemic / organ weight / liver / relative to body weight
[17] = systemic / in life observation / body weight / body weight

Question: For `Clc1ccc(Cl)cc1` [1,4-Dichlorobenzene], which LOAEL (rat [1]; [12]) is on record?
Answer: > 300 ppm

Question: And the NEL (rat [1]; [12])?
Answer: 20 ppm

Question: And the NOAEL (rat [1]; [12])?
Answer: ≥ 300 ppm

Question: What about the LEL (rat [1]; systemic / pathology microscopic / nose / [other]) of the same compound?
Answer: 75 ppm

Question: And the LEL (rat [2]; group: developmental, developmental / developmental malformation / bone / supernumerary)?
Answer: 500 mg/kg/day

Question: What about the LOAEL (rat [2]; [13]) of the same compound?
Answer: > 1000 mg/kg/day

Question: What about the NEL (rat [2]; [13]) of the same compound?
Answer: 250 mg/kg/day

Question: What about the NOAEL (rat [2]; [13]) of the same compound?
Answer: ≥ 1000 mg/kg/day

Question: And the LEL (rat [2]; [14])?
Answer: 500 mg/kg/day

Question: What about the LOAEL (rat [2]; [14]) of the same compound?
Answer: > 1000 mg/kg/day

Question: What about the NEL (rat [2]; [14]) of the same compound?
Answer: 250 mg/kg/day

Question: What about the NOAEL (rat [2]; [14]) of the same compound?
Answer: ≥ 1000 mg/kg/day

Question: What about the LOAEL (mouse [3]; [15]) of the same compound?
Answer: > 300 ppm

Question: What about the NOAEL (mouse [3]; [15]) of the same compound?
Answer: ≥ 300 ppm

Question: And the NEL (mouse [3]; systemic / pathology microscopic / liver / hepatoblastoma + systemic / pathology microscopic / liver / hepatocellular carcinoma + systemic…)?
Answer: 20 ppm

Question: What about the LEL (mouse [3]; systemic / pathology microscopic / nose / metaplasia) of the same compound?
Answer: 75 ppm

Question: And the LEL (mouse [4])?
Answer: 600 mg/kg/day

Question: And the LOAEL (mouse [4])?
Answer: 600 mg/kg/day

Question: What about the NEL (mouse [4]) of the same compound?
Answer: < 600 mg/kg/day

Question: And the NOAEL (mouse [4])?
Answer: < 600 mg/kg/day

Question: What about the LEL (rat [5]) of the same compound?
Answer: 300 mg/kg/day

Question: And the LOAEL (rat [5])?
Answer: 300 mg/kg/day

Question: What about the NEL (rat [5]) of the same compound?
Answer: 150 mg/kg/day

Question: What about the NOAEL (rat [5]) of the same compound?
Answer: 150 mg/kg/day

Question: What about the LEL (mouse [6]) of the same compound?
Answer: 300 mg/kg/day

Question: And the LOAEL (mouse [6])?
Answer: 300 mg/kg/day

Question: What about the NEL (mouse [6]) of the same compound?
Answer: < 300 mg/kg/day

Question: And the NOAEL (mouse [6])?
Answer: < 300 mg/kg/day

Question: And the LEL (mouse [7]; [16])?
Answer: 25 ppm

Question: What about the NEL (mouse [7]; [16]) of the same compound?
Answer: < 25 ppm

Question: What about the NOAEL (mouse [7]; systemic / organ weight / liver / absolute + systemic / organ weight / liver / relative to body weight + systemic / clinical chemistry / …) of the same compound?
Answer: 120 ppm

Question: What about the LOAEL (mouse [7]; systemic / organ weight / liver / relative to body weight + systemic / organ weight / liver / absolute + systemic / pathology microscopic / …) of the same compound?
Answer: 270 ppm

Question: What about the LEL (rat [8]; [17]) of the same compound?
Answer: 25 ppm

Question: And the NEL (rat [8]; [17])?
Answer: < 25 ppm

Question: And the NOAEL (rat [8]; systemic / in life observation / body weight / body weight + systemic / organ weight / kidney / absolute + systemic / organ weight / kidney…)?
Answer: 120 ppm

Question: What about the LOAEL (rat [8]; systemic / organ weight / kidney / absolute + systemic / organ weight / kidney / relative to body weight + systemic / pathology microscopic…) of the same compound?
Answer: 270 ppm

Question: And the LEL (mouse [9])?
Answer: 675 mg/kg/day

Question: What about the LOAEL (mouse [9]) of the same compound?
Answer: 675 mg/kg/day

Question: And the NEL (mouse [9])?
Answer: 338 mg/kg/day

Question: What about the NOAEL (mouse [9]) of the same compound?
Answer: 338 mg/kg/day

Question: And the LEL (rat [10])?
Answer: 300 mg/kg/day

Question: And the LOAEL (rat [10])?
Answer: 300 mg/kg/day

Question: And the NEL (rat [10])?
Answer: < 300 mg/kg/day

Question: What about the NOAEL (rat [10]) of the same compound?
Answer: < 300 mg/kg/day

Question: And the LEL (rat [11])?
Answer: 150 mg/kg/day

Question: And the LOAEL (rat [11])?
Answer: 150 mg/kg/day

Question: And the NEL (rat [11])?
Answer: < 150 mg/kg/day

Question: What about the NOAEL (rat [11]) of the same compound?
Answer: < 150 mg/kg/day
